Assay results from US20110195505A1, “BACTERIAL STRAINS FOR BUTANOL PRODUCTION” (priority 2009, published 2011).
Marks after values point to notes of the source that are not given here.

Legend:
[1] = test system: BP63 (L. plantarum PN0512ΔpyrFΔfabZ1); assay: Fatty acid supplements supporting growth of the fabZ1 mutant; type: cell-based; conditions: fatty acid supplied at 80 mg/L; overnight incubation, OD600
Method: With 100 or 200 mg/liter of oleic acid the growth of BP63 was equivalent to that of the fabZ1^+ control strain, BP15. […] Thus, we conclude that fabZ1 in L. plantarum has the same function as FabN in E. faecalis (Wang, H. and Cronan, J. E. 2004. Functional replacement of the FabA and FabB proteins of Escherichia coli fatty acid synthesis by Enterococcus faecalis FabZ and FabF homologs. J. Biol. Chem. 279, 34489-95). To further test the range of fatty acid supplements that support growth of the fabZ1 mutant, several other fatty acids were supplied at 80 mg/L to the semi-synthetic LAB medium as described above. BP63 and the parental control BP15 were inoculated from the working stocks. After overnight incubation, the OD600 was measured. The growth of BP15 was not inhibited by any of the fatty acids tested. The Table 9 below summarizes the results for the fabZ1 mutant strain, BP63.

[2] = test system: L. plantarum strain PN0512; assay: FAME analysis of membrane lipids of stearic acid fed cultures; type: cell-based, Lactobacillus plantarum
Method: The membrane lipids were extracted by modified Bligh and Dyer protocol (Can. J. Biochem. Physiol. (1959) 37:911-17). The cell pellet prepared as described above was suspended in a mixture of 0.5 ml CHCl3 and 1 ml CH3OH, and transferred to a 13×100 mm tube with a screw top cap. The cap was screwed on about ¾ of the way (i.e., not tight), and the tube was incubated at 40° C. for 30 min. The tube was cooled and an additional 0.5 ml CHCl3 and 1 ml H2O were added the mixture. […] The two phases were equilibrated by vortexing. The two phases were allowed to separate; then the lower CHCl3 layer was removed and transferred to another 13×100 mm tube with a screw top cap. With the cap removed, the CHCl3 was evaporated under a stream of N2. Methyl esters of the fatty acids in the residue were then formed using one of the following procedures.
1 ml freshly made 1.0 M CH3ONa in CH3OH was added to the tubes containing lipid samples extracted by the Bligh and Dyer method as described above. The caps were placed on tubes, screwed on about ¾ of the way (i.e., not tight), then the tubes were heated at 60° C. for 30 minutes. The mixture was chilled in ice bath and 1 ml of 1.0 N HCl was added to the solution in the tubes. The pH of the resulting solution was checked with pH paper to make sure a pH of 7 or lower had been reached. 0.5 ml hexane was added into the test tube and mixed well by vortexing. The tubes were allowed to sit for a few minutes until two phases formed. The top hexane layer was removed and placed in a separate tube for storage until analysis, which was done by GC/FID and/or GC/MS. 2 μl of the hexane layer was injected into an Agilent GC (model 6890)/MS (model 5973). For routine samples a Supelco Equity-1 column (15 m×0.25 mm×0.25 μm film thickness; catalog #28045-U) was used with an FID detector (GC/FID). When an unknown peak needed to be identified, the same column was used with an Agilent MSD detector (GC/MS). When samples requiring difficult separations that were impossible to achieve on a 15 m column were analyzed (e.g., the separation of oleic from elaidic acid), a Supelco S-2380 column (100 m×0.25 mm×0.25 μm film thickness; catalog #24317) was used.
For preparation of samples for FAME analysis, the working stock was used to inoculate 40 ml of medium containing free fatty acids and the cultures were grown overnight. The cell pellet was harvested by centrifugation and was washed twice with phosphate buffered saline (PBS, Bio-Rad Laboratories, Hercules, Calif.) and 5 g/l BSA, then two more times with PBS. Cell pellets were stored at −80° C. until analyzed by FAME using a transesterification protocol, which quantifies fatty acids that have been incorporated in membrane lipids, but not free fatty acids associated with the cell membrane. The FAME analysis is described by Christie (1993) (In Advances in Lipid Methodology—Two, pp. 69-111, Ed. W. W. Christie, Oily Press, Dundee).
Cultures of Lactobacillus plantarum strain PN0512 were grown in media containing stearic acid along with control cultures (with no added fatty acids to the media), as described in General Methods. The membrane composition was analyzed by FAME analysis as described in General Methods as well. The results of FAME analyses shown in Table 6 indicate that stearic acid (C18:0), when added to the growth medium of a culture of strain PN0512, was incorporated into the cell membrane thereby resulting in a substantial increase of the amount of stearic fatty acid in the cell membrane.

[3] = test system: L. plantarum strain PN0512; assay: Growth yield (OD600) in isobutanol, stearic acid fed and unfed cultures; type: cell-based, Lactobacillus plantarum; conditions: for OD600 fed Stearic: stearic acid 50 mg per liter, 25 hours, 30° C.
Method: For growth yield experiments, 5 ml of medium with test fatty acids (10-500 mg per liter) and varying concentrations of isobutanol in 15 ml screw cap tubes was inoculated with 12.5 μl of the working stock giving an initial OD600 of 0.012. The caps were tightly sealed and incubated at 30° C. on a roller drum for 20 to 26 hours, at which time 1.0 ml was removed and OD600 was measured with a blank of medium amended with the fatty acid. All solvent concentrations are reported as % (w/v).
Growth of L. plantarum cultures in the media described in General Methods and containing varying concentrations of isobutanol was measured and compared with the cultures fed (supplemented with) stearic acid at a final concentration of 50 mg per liter of medium. Cultures were prepared as described in General Methods.

## CCCCCCCC/C=C/CCCCCCCC(=O)O [Elaidic]
[1]
  Supports growth of BP63: YES

## CCCCCCCC/C=C\CCCCCCCCCCCC(=O)O [Erucic]
[1]
  Supports growth of BP63: Very slight growth

## CCCCC/C=C\C/C=C\CCCCCCCC(=O)O [Linoleic]
[1]
  Supports growth of BP63: YES

## CCCCCCCCCCCCCC(=O)O [Myristic, Tetradecanoic Acid]
[1]
  Supports growth of BP63: no

## CCCCCCCCCCCCCCCC(=O)O [Palmitic, Hexadecanoic Acid]
[1]
  Supports growth of BP63: no

## CCCCCC/C=C\CCCCCCCC(=O)O [Palmitoleic]
[1]
  Supports growth of BP63: YES

## CCCCCCCCCCCCCCCCCC(=O)O [Stearic Acid, Octadecanoic Acid]
[2]; ratio of molar %
  Membrane Fatty Acid Effect (stearic acid fed)/(stearic acid not fed), C16:0: 0.52
  Membrane Fatty Acid Effect (stearic acid fed)/(stearic acid not fed), C16:1: 1.30
  Membrane Fatty Acid Effect (stearic acid fed)/(stearic acid not fed), C18:0: 33.2
  Membrane Fatty Acid Effect (stearic acid fed)/(stearic acid not fed), C18:1, cis: 0.78
  Membrane Fatty Acid Effect (stearic acid fed)/(stearic acid not fed), cyc-C19:0: 1.23
[2]; stearic acid (C18:0) fed
  Membrane Fatty Acid Content, C16:0: 14.1 molar %
  Membrane Fatty Acid Content, C16:1: 10.0 molar %
  Membrane Fatty Acid Content, C18:0: 16.6 molar %
  Membrane Fatty Acid Content, C18:1, cis: 34.4 molar %
  Membrane Fatty Acid Content, cyc-C19:0: 25.0 molar %
[2]; with stearic acid feeding
  increase of molar % of stearic acid in the cell membrane: more than 30 fold
  increase of molar ratio saturated/unsaturated fatty acids: 16%
[2]; with stearic acid feeding (0.53 without)
  molar ratio of saturated fatty acids (C16:0 and C18:0) to unsaturated fatty acids (C16:1 and C18:1, cis): 0.69
[3]; 0 % w/v isobutanol
  OD600 Ratio OD600fed/OD600unfed control: 1.08
  OD600 fed Stearic: 1.452
[3]; 2.3 % w/v isobutanol
  OD600 Ratio OD600fed/OD600unfed control: 1.18
  OD600 fed Stearic: 0.860
[3]; 2.5 % w/v isobutanol
  OD600 Ratio OD600fed/OD600unfed control: 1.23
  OD600 fed Stearic: 0.422
[3]; 2.7 % w/v isobutanol
  OD600 Ratio OD600fed/OD600unfed control: 1.57^b
  OD600 fed Stearic: 0.206
[3]; 2.9 % w/v isobutanol
  OD600 Ratio OD600fed/OD600unfed control: 1.92
  OD600 fed Stearic: 0.098
[3]; all tested concentrations of isobutanol
  growth yield of stearic acid fed cultures compared with control cultures: greater
[1]
  Supports growth of BP63: no

## CCCCCCCC/C=C\CCCCCCCCCC(=O)O [cis 11-eicosenoic]
[1]
  Supports growth of BP63: YES

## CCCCCC/C=C\CCCCCCCCCCCC(=O)O [cis 13 eicosenoic]
[1]
  Supports growth of BP63: no

## CCCCC/C=C\C/C=C\CCCCCCCCCC(=O)O [cis-11,14-Eicosadienoic]
[1]
  Supports growth of BP63: Partial growth

## CCCCCC/C=C\CCCCCCCCCC(=O)O [cis-Vaccenic]
[1]
  Supports growth of BP63: YES

## CCCCCCCC[C@@H]1C[C@@H]1CCCCCCCC(=O)O [dihydrosterculic, Dihydrosterculic acid]
[1]
  Supports growth of BP63: YES
